{"source": "patent US7205123B2", "about": "“Recombinant materials for carotenoid production” (DSM IP Assets B.V., priority 1995, dated 2007)", "key": {"[1]": {"test_system": "Phaffia (CBS6938)", "assay": "Survival of untransformed Phaffia on YepD agar with increasing G418", "assay_type": "cell-based, Phaffia rhodozyma", "conditions": "Dil. 0 (OD600 = 5)"}, "[2]": {"test_system": "Phaffia transformant G418-1", "assay": "Survival of Phaffia transformant G418-1 on YepD agar with increasing G418", "assay_type": "cell-based, Phaffia rhodozyma", "protocol": "To determine the expression of the G418 resistance gene in pGB-Ph9, transformant G418-1 (EP 0 590 707 A1) was exposed to increasing concentrations of G418.\nTwo dilutions of a G418-1 culture were plated onto YepD agar containing 0–1000 μg/ml G418 (Table 1)."}}}
{"smiles": "CN[C@@H]1[C@@H](O)[C@@H](O[C@@H]2[C@@H](O)[C@H](O[C@H]3O[C@H]([C@@H](C)O)[C@@H](O)[C@H](O)[C@H]3N)[C@@H](N)C[C@H]2N)OC[C@]1(C)O", "note": "[G418]", "values": [{"measurement": "Survival on YepD agar medium", "setting": "[1]; G418 200 μg/ml", "value": 0}, {"measurement": "Survival on YepD agar medium", "setting": "[1]; G418 300 μg/ml", "value": 0}, {"measurement": "Survival on YepD agar medium", "setting": "[1]; G418 400 μg/ml", "value": 0}, {"measurement": "Survival on YepD agar medium", "setting": "[1]; G418 500 μg/ml", "value": 0}, {"measurement": "Survival on YepD agar medium", "setting": "[1]; G418 600 μg/ml", "value": 0}, {"measurement": "Survival on YepD agar medium", "setting": "[1]; G418 700 μg/ml", "value": 0}, {"measurement": "Survival on YepD agar medium", "setting": "[1]; G418 800 μg/ml", "value": 0}, {"measurement": "Survival on YepD agar medium", "setting": "[1]; G418 900 μg/ml", "value": 0}, {"measurement": "Survival on YepD agar medium", "setting": "[1]; G418 1000 μg/ml", "value": 0}, {"measurement": "Survival on YepD agar medium", "setting": "[2]; G418 200 μg/ml, Dil. 10^-4 (OD600 = 7)", "value": ">300"}, {"measurement": "Survival on YepD agar medium", "setting": "[2]; G418 200 μg/ml, Dil. 10^-5 (OD600 = 7)", "value": 70}, {"measurement": "Survival on YepD agar medium", "setting": "[2]; G418 300 μg/ml, Dil. 10^-4 (OD600 = 7)", "value": ">300"}, {"measurement": "Survival on YepD agar medium", "setting": "[2]; G418 300 μg/ml, Dil. 10^-5 (OD600 = 7)", "value": 61}, {"measurement": "Survival on YepD agar medium", "setting": "[2]; G418 400 μg/ml, Dil. 10^-4 (OD600 = 7)", "value": 212}, {"measurement": "Survival on YepD agar medium", "setting": "[2]; G418 400 μg/ml, Dil. 10^-5 (OD600 = 7)", "value": 13}, {"measurement": "Survival on YepD agar medium", "setting": "[2]; G418 500 μg/ml, Dil. 10^-4 (OD600 = 7)", "value": 10}, {"measurement": "Survival on YepD agar medium", "setting": "[2]; G418 500 μg/ml, Dil. 10^-5 (OD600 = 7)", "value": 2}, {"measurement": "plated cells survived", "setting": "[2]; G418 600 μg/ml", "value": "less than 1%"}, {"measurement": "Survival on YepD agar medium", "setting": "[2]; G418 600 μg/ml, Dil. 10^-4 (OD600 = 7)", "value": 0}, {"measurement": "Survival on YepD agar medium", "setting": "[2]; G418 600 μg/ml, Dil. 10^-5 (OD600 = 7)", "value": 0}, {"measurement": "Survival on YepD agar medium", "setting": "[2]; G418 700 μg/ml, Dil. 10^-4 (OD600 = 7)", "value": 0}, {"measurement": "Survival on YepD agar medium", "setting": "[2]; G418 700 μg/ml, Dil. 10^-5 (OD600 = 7)", "value": 0}, {"measurement": "Survival on YepD agar medium", "setting": "[2]; G418 800 μg/ml, Dil. 10^-4 (OD600 = 7)", "value": 0}, {"measurement": "Survival on YepD agar medium", "setting": "[2]; G418 800 μg/ml, Dil. 10^-5 (OD600 = 7)", "value": 0}, {"measurement": "Survival on YepD agar medium", "setting": "[2]; G418 900 μg/ml, Dil. 10^-4 (OD600 = 7)", "value": 0}, {"measurement": "Survival on YepD agar medium", "setting": "[2]; G418 900 μg/ml, Dil. 10^-5 (OD600 = 7)", "value": 0}, {"measurement": "Survival on YepD agar medium", "setting": "[2]; G418 1000 μg/ml, Dil. 10^-4 (OD600 = 7)", "value": 0}, {"measurement": "Survival on YepD agar medium", "setting": "[2]; G418 1000 μg/ml, Dil. 10^-5 (OD600 = 7)", "value": 0}]}
